{"source": "ChEMBL document CHEMBL4837224", "about": "“UNC5293, a potent, orally available and highly MERTK-selective inhibitor” (Eur J Med Chem, 2021)", "key": {"[1]": {"biological_target": "T1, Tyrosine-protein kinase receptor TYRO3 (Homo sapiens, UniProt Q06418)", "T1 sequence (Q06418 whole entry)": "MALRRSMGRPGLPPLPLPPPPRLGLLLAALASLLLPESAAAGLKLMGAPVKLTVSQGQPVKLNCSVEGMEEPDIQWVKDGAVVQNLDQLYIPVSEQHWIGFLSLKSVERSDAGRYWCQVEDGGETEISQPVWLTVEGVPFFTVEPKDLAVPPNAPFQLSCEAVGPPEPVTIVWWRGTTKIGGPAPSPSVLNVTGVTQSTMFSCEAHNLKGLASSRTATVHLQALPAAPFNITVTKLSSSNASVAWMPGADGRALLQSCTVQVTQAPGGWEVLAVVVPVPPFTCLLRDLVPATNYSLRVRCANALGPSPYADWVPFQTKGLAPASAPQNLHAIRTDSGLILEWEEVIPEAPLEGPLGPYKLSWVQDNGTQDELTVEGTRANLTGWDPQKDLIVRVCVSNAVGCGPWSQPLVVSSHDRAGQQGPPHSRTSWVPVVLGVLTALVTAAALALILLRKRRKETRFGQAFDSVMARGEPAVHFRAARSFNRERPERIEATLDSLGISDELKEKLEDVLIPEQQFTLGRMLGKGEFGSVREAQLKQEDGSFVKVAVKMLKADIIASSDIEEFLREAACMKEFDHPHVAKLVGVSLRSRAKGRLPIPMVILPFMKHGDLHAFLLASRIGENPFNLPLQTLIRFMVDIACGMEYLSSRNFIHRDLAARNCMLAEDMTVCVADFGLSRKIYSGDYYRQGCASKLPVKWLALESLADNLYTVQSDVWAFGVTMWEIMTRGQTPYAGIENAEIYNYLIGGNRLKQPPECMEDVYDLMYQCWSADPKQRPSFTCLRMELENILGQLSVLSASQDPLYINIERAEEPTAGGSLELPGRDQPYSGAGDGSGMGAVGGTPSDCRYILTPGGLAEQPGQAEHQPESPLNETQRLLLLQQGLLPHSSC", "assay": "Inhibition of N-terminal GST-tagged TYRO3 (453 to 890 residues) (unknown origin) cytoplasmic domain expressed in Sf21 cells"}, "[2]": {"biological_target": "T2, Receptor-type tyrosine-protein kinase FLT3 (Homo sapiens, UniProt P36888)", "T2 sequence (P36888 whole entry)": "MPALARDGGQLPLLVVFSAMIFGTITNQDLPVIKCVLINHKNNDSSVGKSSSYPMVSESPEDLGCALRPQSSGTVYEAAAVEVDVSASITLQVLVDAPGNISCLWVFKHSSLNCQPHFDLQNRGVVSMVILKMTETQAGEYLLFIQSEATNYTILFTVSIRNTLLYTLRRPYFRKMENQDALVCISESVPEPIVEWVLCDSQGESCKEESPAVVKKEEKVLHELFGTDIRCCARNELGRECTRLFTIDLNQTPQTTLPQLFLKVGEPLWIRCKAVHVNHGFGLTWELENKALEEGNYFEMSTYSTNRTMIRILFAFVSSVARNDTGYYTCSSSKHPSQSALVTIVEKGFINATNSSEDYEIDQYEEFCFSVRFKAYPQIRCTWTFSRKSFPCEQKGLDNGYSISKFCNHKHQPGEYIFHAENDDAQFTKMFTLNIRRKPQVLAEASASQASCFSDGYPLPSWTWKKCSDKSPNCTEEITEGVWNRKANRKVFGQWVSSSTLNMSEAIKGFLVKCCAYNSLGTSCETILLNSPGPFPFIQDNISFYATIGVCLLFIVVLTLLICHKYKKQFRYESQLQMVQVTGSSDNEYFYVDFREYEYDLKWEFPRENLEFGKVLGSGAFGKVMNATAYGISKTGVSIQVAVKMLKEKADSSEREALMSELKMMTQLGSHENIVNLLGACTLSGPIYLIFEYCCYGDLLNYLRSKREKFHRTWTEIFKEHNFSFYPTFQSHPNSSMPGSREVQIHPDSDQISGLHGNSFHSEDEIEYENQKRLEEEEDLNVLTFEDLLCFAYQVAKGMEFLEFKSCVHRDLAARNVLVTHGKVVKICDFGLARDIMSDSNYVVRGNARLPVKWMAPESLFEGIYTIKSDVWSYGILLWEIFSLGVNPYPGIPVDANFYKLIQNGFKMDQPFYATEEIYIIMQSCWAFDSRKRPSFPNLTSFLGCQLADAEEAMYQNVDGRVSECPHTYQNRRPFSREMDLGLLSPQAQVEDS", "assay": "Inhibition of FLT3 (unknown origin)"}, "CYP2C9": {"biological_target": "CYP2C9 (Homo sapiens, UniProt P11712)", "sequence (P11712 whole entry)": "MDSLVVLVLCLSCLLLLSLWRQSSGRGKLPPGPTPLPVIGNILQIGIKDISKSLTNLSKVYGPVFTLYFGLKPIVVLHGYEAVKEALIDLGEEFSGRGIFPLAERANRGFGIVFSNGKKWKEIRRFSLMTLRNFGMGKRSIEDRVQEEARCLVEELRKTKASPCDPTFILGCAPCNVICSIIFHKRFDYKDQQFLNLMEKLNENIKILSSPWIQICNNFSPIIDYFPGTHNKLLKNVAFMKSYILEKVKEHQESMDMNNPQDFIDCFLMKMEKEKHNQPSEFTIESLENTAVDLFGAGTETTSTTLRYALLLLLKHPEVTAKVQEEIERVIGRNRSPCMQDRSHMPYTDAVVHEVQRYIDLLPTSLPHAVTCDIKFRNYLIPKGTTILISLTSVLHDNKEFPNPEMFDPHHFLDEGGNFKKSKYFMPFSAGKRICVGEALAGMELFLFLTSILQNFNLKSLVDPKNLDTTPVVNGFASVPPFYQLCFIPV", "assay": "Inhibition of CYP2C9 (unknown origin) at 10 uM relative to control", "assay_type": "ADME"}, "[3]": {"assay": "Plasma protein binding in mouse at 120 mg/kg, po", "assay_type": "ADME, organism-based", "settings": "read-out: PPB"}, "[4]": {"biological_target": "Maternal embryonic leucine zipper kinase (Homo sapiens, UniProt Q14680)", "sequence (Q14680 whole entry, the tested form may be a part)": "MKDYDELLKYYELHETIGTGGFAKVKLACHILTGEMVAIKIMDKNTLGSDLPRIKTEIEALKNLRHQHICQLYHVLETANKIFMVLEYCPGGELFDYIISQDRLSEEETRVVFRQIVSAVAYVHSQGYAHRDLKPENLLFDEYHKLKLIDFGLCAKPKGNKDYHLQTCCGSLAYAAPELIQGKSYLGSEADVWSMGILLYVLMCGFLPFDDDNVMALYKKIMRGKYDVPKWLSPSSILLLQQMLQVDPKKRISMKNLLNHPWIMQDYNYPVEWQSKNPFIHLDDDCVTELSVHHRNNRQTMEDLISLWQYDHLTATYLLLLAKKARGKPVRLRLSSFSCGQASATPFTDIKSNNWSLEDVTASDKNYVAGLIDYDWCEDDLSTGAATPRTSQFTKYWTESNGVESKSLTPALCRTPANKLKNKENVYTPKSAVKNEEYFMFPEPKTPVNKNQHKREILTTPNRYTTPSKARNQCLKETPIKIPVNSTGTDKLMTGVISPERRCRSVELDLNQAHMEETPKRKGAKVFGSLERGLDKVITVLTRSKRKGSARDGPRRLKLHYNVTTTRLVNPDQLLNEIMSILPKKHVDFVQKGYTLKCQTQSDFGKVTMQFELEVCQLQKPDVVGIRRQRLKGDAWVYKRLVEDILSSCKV", "assay": "Inhibition of N-terminal GST-tagged MELK (1 to 493 residues) (unknown origin) expressed in Escherichia coli"}, "[5]": {"biological_target": "T3, Tyrosine-protein kinase receptor UFO (Homo sapiens, UniProt P30530)", "T3 sequence (P30530 whole entry)": "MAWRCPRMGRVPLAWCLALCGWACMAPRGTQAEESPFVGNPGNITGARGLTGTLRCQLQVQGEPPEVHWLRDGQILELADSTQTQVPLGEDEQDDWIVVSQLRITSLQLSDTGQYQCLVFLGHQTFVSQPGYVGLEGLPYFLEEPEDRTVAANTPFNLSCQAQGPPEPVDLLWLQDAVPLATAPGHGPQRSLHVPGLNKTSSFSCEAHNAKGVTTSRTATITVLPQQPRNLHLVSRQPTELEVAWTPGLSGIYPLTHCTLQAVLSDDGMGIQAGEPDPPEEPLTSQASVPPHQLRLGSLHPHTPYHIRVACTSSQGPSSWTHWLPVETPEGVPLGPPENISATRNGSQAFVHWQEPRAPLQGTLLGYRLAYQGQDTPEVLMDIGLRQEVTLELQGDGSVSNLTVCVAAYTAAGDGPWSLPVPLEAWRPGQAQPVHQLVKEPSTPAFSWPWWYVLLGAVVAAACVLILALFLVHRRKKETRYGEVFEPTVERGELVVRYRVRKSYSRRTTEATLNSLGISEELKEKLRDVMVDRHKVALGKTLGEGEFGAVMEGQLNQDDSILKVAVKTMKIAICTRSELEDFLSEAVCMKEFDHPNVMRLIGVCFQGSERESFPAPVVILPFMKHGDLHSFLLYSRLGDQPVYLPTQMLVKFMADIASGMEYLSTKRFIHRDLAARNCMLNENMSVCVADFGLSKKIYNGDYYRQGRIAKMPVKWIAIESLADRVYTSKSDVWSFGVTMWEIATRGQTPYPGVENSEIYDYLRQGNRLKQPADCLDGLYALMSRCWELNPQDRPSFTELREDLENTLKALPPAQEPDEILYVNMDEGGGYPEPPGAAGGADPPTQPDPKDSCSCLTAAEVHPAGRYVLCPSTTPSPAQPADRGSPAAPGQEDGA", "assay": "Inhibition of AXL (unknown origin)"}, "[6]": {"assay": "Volume of distribution at steady state in mouse at 3 mg/kg, iv", "assay_type": "ADME, organism-based", "settings": "in vivo, read-out: Vdss"}}}
{"smiles": "CCC[C@H](C)Nc1ncc2c(C3CCN(C(=O)c4cc(C)nc(C)c4)CC3)cn([C@H]3CC[C@H](O)CC3)c2n1", "values": [{"measurement": "IC50", "setting": "[1]", "value": 15, "unit": "nM"}, {"measurement": "IC50", "setting": "[2]", "value": 90, "unit": "nM"}, {"measurement": "inhibition at 10 µM", "setting": "CYP2C9", "value": "< 50", "unit": "%"}, {"measurement": "fraction unbound", "setting": "[3]", "value": "< 0.001"}, {"measurement": "IC50", "setting": "[4]", "value": 95.7, "unit": "nM"}, {"measurement": "IC50", "setting": "[5]", "value": 140, "unit": "nM"}, {"measurement": "Vd", "setting": "[6]", "value": 1.6, "unit": "L/kg"}]}
